Paper PMC4317228 (Pharmacology Research & Perspectives, 2014)

Legend:
[1] = target: T1, human metabotropic glutamate type 2 receptor (hmGlu2) (Homo sapiens, UniProt Q14416); assay: [3H]DCG-IV saturation binding, hmGlu2 CHO membranes
T1 construct: gene GRM2; full-length receptor, stably expressed in CHO cells (membranes)

[2] = target: T2, human 5HT2A receptor (h5HT2A) (Homo sapiens, UniProt P28223); assay: [3H]ketanserin displacement
T2 construct: gene HTR2A
T2 sequence (P28223 whole entry): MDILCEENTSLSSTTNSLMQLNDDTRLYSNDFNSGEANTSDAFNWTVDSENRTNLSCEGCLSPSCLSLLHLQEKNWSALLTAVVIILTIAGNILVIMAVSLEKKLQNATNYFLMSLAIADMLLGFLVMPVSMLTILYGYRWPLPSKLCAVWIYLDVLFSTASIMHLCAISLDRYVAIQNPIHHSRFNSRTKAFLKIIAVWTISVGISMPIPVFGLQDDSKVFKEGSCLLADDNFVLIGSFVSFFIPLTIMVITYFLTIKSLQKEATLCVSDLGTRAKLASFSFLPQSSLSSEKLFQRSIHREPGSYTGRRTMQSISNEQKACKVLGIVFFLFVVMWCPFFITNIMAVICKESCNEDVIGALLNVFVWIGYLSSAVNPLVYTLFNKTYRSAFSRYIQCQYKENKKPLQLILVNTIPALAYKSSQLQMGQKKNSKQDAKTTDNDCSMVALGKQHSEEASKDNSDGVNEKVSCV

T1 sequence (Q14416 19-872): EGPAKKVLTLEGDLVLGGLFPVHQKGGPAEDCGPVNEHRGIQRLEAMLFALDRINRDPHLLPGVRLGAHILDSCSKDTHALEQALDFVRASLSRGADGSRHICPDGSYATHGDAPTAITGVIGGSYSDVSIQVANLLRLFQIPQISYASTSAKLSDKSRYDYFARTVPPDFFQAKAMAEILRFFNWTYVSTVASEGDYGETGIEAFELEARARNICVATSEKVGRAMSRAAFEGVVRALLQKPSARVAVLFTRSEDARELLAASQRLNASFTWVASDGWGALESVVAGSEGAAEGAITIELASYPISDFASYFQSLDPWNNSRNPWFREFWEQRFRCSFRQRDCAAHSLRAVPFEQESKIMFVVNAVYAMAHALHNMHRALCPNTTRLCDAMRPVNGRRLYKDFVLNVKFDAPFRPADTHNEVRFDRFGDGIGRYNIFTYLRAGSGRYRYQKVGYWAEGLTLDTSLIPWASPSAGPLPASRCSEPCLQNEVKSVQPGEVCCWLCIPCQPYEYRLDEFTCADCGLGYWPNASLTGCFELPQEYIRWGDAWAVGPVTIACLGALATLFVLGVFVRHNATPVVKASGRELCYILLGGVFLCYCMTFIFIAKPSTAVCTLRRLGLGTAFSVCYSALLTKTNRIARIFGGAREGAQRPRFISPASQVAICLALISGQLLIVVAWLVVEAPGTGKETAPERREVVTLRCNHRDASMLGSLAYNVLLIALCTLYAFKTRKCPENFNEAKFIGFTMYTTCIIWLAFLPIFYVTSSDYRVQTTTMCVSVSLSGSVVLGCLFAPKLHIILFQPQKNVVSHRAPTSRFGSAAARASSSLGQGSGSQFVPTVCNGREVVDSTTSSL

Structure (SMILES) | Kd [1] [nM] | IC50 [2] [nM]
N[C@H](C(=O)O)C1[C@@H](C(=O)O)[C@@H]1C(=O)O (some centres unmarked) [DCG-IV] | 200 | –
CCCCn1ccc(N2CCC(c3ccc(O)cc3)CC2)c(Cl)c1=O [JNJ-42159052] | – | 102
